Assay results from PMC9728284, “Inhibition of Herpes Simplex Viruses, Types 1 and 2, by Ginsenoside 20(S)-Rg3” (Journal of Microbiology and Biotechnology, 2019).
Where “and” joins values, the source holds several entries; their conditions need not be identical. Identical values can stand only once.

Columns and labels:
HSV-1 [1] = experiment: HSV-1 inhibition in Vero cells (PrestoBlue, compound and virus added simultaneously); type: cell-based, Herpes simplex virus type 1 (MacIntyre strain); conditions: for IC50: Human alphaherpesvirus 1, two-fold dilutions, linear regression, Vero cells, read-out: IC50 against HSV-1
Protocol: (§1) Herpes simplex virus type 1 (HSV-1, MacIntyre strain, ATCC, VR-539) or herpes simplex virus type 2 (HSV-2, ATCC, VR-734) were used in these studies. Virus titer was determined by plaque assay. Briefly, following 2 h adsorption of various virus dilutions onto a Vero cell monolayer in a 24-well plate, the medium was removed and cells were overlaid with 1.5% carboxymethylcellulose (Sigma) and incubated 48 h at 37°C with 5% CO2. After incubation, cells were fixed with methanol, stained with Giemsa (Sigma) and plaques were counted. Each virus dilution was prepared in quadruplicate.
(§2) All ginsenosides, isomers, and protopanaxadiols were evaluated for toxic effects on Vero cells prior to anti-viral testing. Cells were seeded at 5,000 cells/well in a black 96-well plate with clear bottom in a volume of 100 µl and allowed to attach for 24 h. The P. ginseng compounds were prepared in DMSO at 100 µM and were taken through serial two-fold dilutions to determine the concentration when the rate of cell death was less than 10%compared to control, untreated cells. Each dilution was tested in three wells and all assays were repeated three times. Following 48 h incubation at 37°C in 5% CO2, 11 µl of PrestoBlue (Invitrogen) was added to each well and the plate was incubated for an additional 30 min. PrestoBlue determines cell viability by changing from blue to red as resazurin is reduced to resorufin by viable cells. Following the PrestoBlue incubation, fluorescence was determined by spectrophotometric reading using Soft Max Pro (Molecular Diagnostics, USA).
(§3) For cytotoxicity testing, 4 µl of dilutions of the ginsenosides or protopanaxadiols were added to 396 µl of medium 199 and 100 µl of this mixture was added to each of three wells. For anti-viral testing, 4 µl of the non-toxic reagent and 4 µl of HSV-1 or HSV-2 diluted to an MOI of 0.1 were added to 392 µl of medium 199 and 100 µl of this was added to each of three wells. Virus inhibition was determined by comparing the cell death of reagent-exposed cells with cell death of control cells only receiving virus. The 50%inhibitory concentration (IC50) was determined through a series of two-fold dilutions and calculation by linear regression analysis.

[2] = Cytotoxicity on Vero cells (PrestoBlue cell viability assay); type: cell-based; conditions: African green monkey
Protocol: as §2, §3

Vero cells = experiment: as above; type: cell-based
Protocol: as §2, §3

HSV-2 = HSV-2 inhibition in Vero cells (PrestoBlue, compound and virus added simultaneously); type: cell-based, herpes simplex virus type 2; conditions: for Percent Inhibition of HSV-2: ± standard error
Protocol: as §1, §2, §3

HSV-1 [3] = experiment: Plaque reduction of HSV-1 on Vero cell monolayer; type: cell-based, Herpes simplex virus type 1 (MacIntyre strain); conditions: valacyclovir 16 μM, 20(S)-Rg3 50 μM; for Number of Plaques: approximately 50 PFU/well, 48 h, ± standard error; for Percent Reduction (plaques of HSV-1): compared to control
Protocol: as §1
The plaque assay procedure also was used to evaluate the percent plaque reduction; the only procedural change was that a constant virus concentration was used (50 PFU/well). Plaque reduction was measured by comparing the control (virus only), with valacyclovir (16 µM) with virus or 20(S)-Rg3 (50 µM) with virus. Sample wells were evaluated in quadruplicate. Following the 2 h virus adsorption, the methylcellulose-medium containing the same concentrations of valacyclovir or 20(S)-Rg3 was added to the appropriate wells. After 48 h, plaques were fixed, stained and counted.

HSV-1 [4] = experiment: Time studies of HSV-1 inhibition (PrestoBlue); type: cell-based, Herpes simplex virus type 1 (MacIntyre strain); conditions: for Percent Inhibition of HSV-1: 20(S)-Rg3 50 μM
Protocol: For virus inhibition studies described above, reagent 20(S)-Rg3 and virus were added to cells simultaneously. In an attempt to evaluate the potential mode of action of 20(S)-Rg3, various combinations of valacyclovir, 20(S)-Rg3 and HSV-1 were tested at different time periods. The following combinations were evaluated at both one hour and four hours:
• ● Virus applied to cells first (for one hour or four hours), followed by addition of valacyclovir, 20(S)-Rg3 or both valacyclovir and 20(S)-Rg3 to the cells • ● Valacyclovir or 20(S)-Rg3 or both valacyclovir and 20(S)-Rg3 applied to cells first (for one or four hours), followed by virus • ● Valacyclovir or 20(S)-Rg3 incubated together with virus first for one or four hours then added to cells
All procedures described for evaluation of virus inhibition were followed in identical fashion as outlined for the PrestoBlue procedure except valacyclovir was used at a constant concentration of 16 µM and 20(S)-Rg3 at 50 µM.

[5] = Cytotoxicity on Vero cells (PrestoBlue cell viability assay); type: cell-based; conditions: African green monkey, read-out: Percent Cell Viability; for viability at 48 h, 500 μM: 20(S)-Rg3 500 μM
PC12 cells = conditions: cited from earlier work
normal WI 38 cells = tested on: normal WI 38 cells; design: method as in PMID 18365686; conditions: 120 μM; cited from earlier work
[6] = tested on: human carcinoma cells KB V20C; conditions: cited from earlier work
[7] = design: method as in New Drug Application #20-487/S-007, GlaxoSmithKline; conditions: ref New Drug Application #20-487/S-007, GlaxoSmithKline; cited from earlier work
[8] = each compound at its non-toxic concentration (Table 1 c1), MOI 0.1, value in parentheses = higher cell death than virus-alone control

## 20(S)-Rh2
HSV-1 [1]; [8]
  Percent Inhibition of HSV-1: 46.2%

## CC(C)=CCC[C@@](C)(O)C1CC[C@]2(C)C1C(O)CC1C3(C)CCC(OC4OC(CO)C(O)C(O)C4OC4OC(CO)C(O)C(O)C4O)C(C)(C)C3CCC12C (stereo partly drawn) [20(R)-Rg3]
HSV-1 [1]; [8]
  Percent Inhibition of HSV-1: 22.7%

## CC(C)=CCC[C@@](C)(O)C1CC[C@]2(C)C1C(O)CC1C3(C)CCC(O)C(C)(C)C3CCC12C (stereo partly drawn) [20(R)-protopanaxadiol]
HSV-1 [1]; [8]
  Percent Inhibition of HSV-1: 14.4%

## CC(C)=CCC[C@](C)(O)C1CC[C@]2(C)C1C(O)CC1C3(C)CCC(OC4OC(CO)C(O)C(O)C4OC4OC(CO)C(O)C(O)C4O)C(C)(C)C3CCC12C (stereo partly drawn) [20(S)-Rg3, Ginsenoside 20(S)-Rg3]
[2]
  IC50 at 48 h: ~400 µM
[2]; 20(S)-Rg3 50 μM, parentheses = greater proliferation or metabolic activity than untreated cells, read-out: Percent Cell Viability
  viability at 48 h, 50 μM: 113%
[2]; 20(S)-Rg3 100 μM, parentheses = greater proliferation or metabolic activity than untreated cells, read-out: Percent Cell Viability
  viability at 48 h, 100 μM: 114%
Vero cells; Vero cell toxicity IC50 versus antiviral IC50 (HSV-1 and HSV-2)
  selectivity: 11 fold
HSV-1 [1]; 20(S)-Rg3 25 μM, ± standard error
  Percent Inhibition of HSV-1: 11.0 ± 2.6%
HSV-1 [1]; 20(S)-Rg3 50 μM, ± standard error
  Percent Inhibition of HSV-1: 80% and 82.3 ± 3.5%
HSV-1 [1]; 20(S)-Rg3 100 μM, ± standard error
  Percent Inhibition of HSV-1: 90.3 ± 9.9%
HSV-1 [1]
  IC50: ~35 µM
HSV-1 [1]; [8]
  Percent Inhibition of HSV-1: 90.3%
HSV-2; 20(S)-Rg3 25 μM
  Percent Inhibition of HSV-2: 14.3 ± 3.3%
HSV-2; 20(S)-Rg3 50 μM
  Percent Inhibition of HSV-2: 80% and 81.7 ± 10.3%
HSV-2; 20(S)-Rg3 100 μM
  Percent Inhibition of HSV-2: 114.7 ± 6.7%
HSV-2; Human alphaherpesvirus 2, two-fold dilutions, linear regression, Vero cells, read-out: IC50 against HSV-2
  IC50: ~35 µM
HSV-1 [3]
  Number of Plaques: 1.5 ± 0.3
  Percent Reduction (plaques of HSV-1): 97.3%
HSV-1 [4]; cells treated with compound 4 h prior to HSV-1 addition
  Percent Inhibition of HSV-1: 90.1 ± 11.1%
HSV-1 [4]; virus present on cells 4 h prior to compound addition
  Percent Inhibition of HSV-1: 50.7 ± 4.4%
[5]; 20(S)-Rg3 125 μM, parentheses = greater proliferation or metabolic activity than untreated cells
  viability at 48 h, 125 μM: 122%
[5]; 20(S)-Rg3 250 μM, parentheses = greater proliferation or metabolic activity than untreated cells
  viability at 48 h, 250 μM: 129%
[5]
  viability at 48 h, 500 μM: 17.7 ± 14.7%

## CC(C)=CCC[C@](C)(O)C1CC[C@]2(C)C1C(O)CC1C3(C)CCC(O)C(C)(C)C3CCC12C (stereo partly drawn) [20(S)-protopanaxadiol]
PC12 cells
  concentration not toxic for PC12 cells: 20 µM

## CC(C)=CCC[C@](C)(O[C@@H]1O[C@H](CO[C@@H]2O[C@H](CO)[C@@H](O)[C@H](O)[C@H]2O)[C@@H](O)[C@H](O)[C@H]1O)[C@H]1CC[C@]2(C)[C@@H]1[C@H](O)C[C@@H]1[C@@]3(C)CC[C@H](O[C@@H]4O[C@H](CO)[C@@H](O)[C@H](O)[C@H]4O[C@@H]4O[C@H](CO)[C@@H](O)[C@H](O)[C@H]4O)C(C)(C)[C@@H]3CC[C@]12C [Rb1]
HSV-1 [1]; [8]
  Percent Inhibition of HSV-1: 23% and 23.3%

## CC(C)=CCC[C@](C)(O[C@@H]1O[C@H](CO[C@@H]2OC[C@H](O)[C@H](O)[C@H]2O)[C@@H](O)[C@H](O)[C@H]1O)[C@H]1CC[C@]2(C)[C@@H]1[C@H](O)C[C@@H]1[C@@]3(C)CC[C@H](O[C@@H]4O[C@H](CO)[C@@H](O)[C@H](O)[C@H]4O[C@@H]4O[C@H](CO)[C@@H](O)[C@H](O)[C@H]4O)C(C)(C)[C@@H]3CC[C@]12C [Rb2]
HSV-1 [1]; [8]
  Percent Inhibition of HSV-1: 26.4%

## CC(C)=CCC[C@](C)(O[C@@H]1O[C@H](CO[C@@H]2OC[C@@H](O)[C@H](O)[C@H]2O)[C@@H](O)[C@H](O)[C@H]1O)[C@H]1CC[C@]2(C)[C@@H]1[C@H](O)C[C@@H]1[C@@]3(C)CC[C@H](O[C@@H]4O[C@H](CO)[C@@H](O)[C@H](O)[C@H]4O[C@@H]4O[C@H](CO)[C@@H](O)[C@H](O)[C@H]4O)C(C)(C)[C@@H]3CC[C@]12C [Rb3]
HSV-1 [1]; [8]
  Percent Inhibition of HSV-1: 30.9%

## CC(C)=CCC[C@](C)(O[C@@H]1O[C@H](CO[C@@H]2O[C@@H](CO)[C@H](O)[C@H]2O)[C@@H](O)[C@H](O)[C@H]1O)[C@H]1CC[C@]2(C)[C@@H]1[C@H](O)C[C@@H]1[C@@]3(C)CC[C@H](O[C@@H]4O[C@H](CO)[C@@H](O)[C@H](O)[C@H]4O[C@@H]4O[C@H](CO)[C@@H](O)[C@H](O)[C@H]4O)C(C)(C)[C@@H]3CC[C@]12C [Rc]
HSV-1 [1]; [8]
  Percent Inhibition of HSV-1: 28.6%

## CC(C)=CCC[C@](C)(O[C@@H]1O[C@H](CO)[C@@H](O)[C@H](O)[C@H]1O)[C@H]1CC[C@]2(C)[C@@H]1[C@H](O)C[C@@H]1[C@@]3(C)CC[C@H](O[C@@H]4O[C@H](CO)[C@@H](O)[C@H](O)[C@H]4O[C@@H]4O[C@H](CO)[C@@H](O)[C@H](O)[C@H]4O)C(C)(C)[C@@H]3CC[C@]12C [Rd]
HSV-1 [1]; [8]
  Percent Inhibition of HSV-1: 36.1%

## CC(C)=CCC[C@](C)(O[C@@H]1O[C@H](CO)[C@@H](O)[C@H](O)[C@H]1O)[C@H]1CC[C@]2(C)[C@@H]1[C@H](O)C[C@@H]1[C@@]3(C)CC[C@H](O)C(C)(C)[C@@H]3[C@@H](O[C@@H]3O[C@H](CO)[C@@H](O)[C@H](O)[C@H]3O[C@@H]3O[C@@H](C)[C@H](O)[C@@H](O)[C@H]3O)C[C@]12C [Re]
HSV-1 [1]; [8]
  Percent Inhibition of HSV-1: 26.7%

## CC(C)=CCC[C@](C)(O[C@@H]1O[C@H](CO)[C@@H](O)[C@H](O)[C@H]1O)[C@H]1CC[C@]2(C)[C@@H]1[C@H](O)C[C@@H]1[C@@]3(C)CC[C@H](O)C(C)(C)[C@@H]3[C@@H](O[C@@H]3O[C@H](CO)[C@@H](O)[C@H](O)[C@H]3O)C[C@]12C [Rg1]
HSV-1 [1]; [8]
  Percent Inhibition of HSV-1: 13.2%

## CC(C)=CCCC(C)(O)C1CC[C@]2(C)C1C(O)CC1C3(C)CCC(OC4OC(CO)C(O)C(O)C4OC4OC(CO)C(O)C(O)C4O)C(C)(C)C3CCC12C (some centres unmarked) [Rg3, ginsenoside Rg3]
[5]
  viability at 48 h, 500 μM: < 20%
Normal WI 38 cells
  effect on normal WI 38 cells: no effect
[6]
  cytotoxic concentration: 120 µM

## CC(C)[C@H](N)C(=O)OCCOCn1cnc2c(=O)[nH]c(N)nc21 [Valacyclovir, reference compound]
[2]
  viability at 48 h, 16 μM: ~99%
Vero cells; African green monkey, 48 h, 16 μM
  percent cell death: 1.2 ± 0.4%
HSV-1 [1]
  IC50: 13.2 µM
HSV-1 [3]
  Number of Plaques: 8.1 ± 1.1
  Percent Reduction (plaques of HSV-1): 85.7%
HSV-1 [4]; Human alphaherpesvirus 1, HSV-1 incubated together with valacyclovir (16 μM) 0 to 4 h prior to addition to cells, read-out: percent inhibition of HSV-1
  inhibition at 16 µM: 52.3 to 54.7%
[7]
  reported IC50 ranges: 0.02 to 13.5 µg/mL
